# “And” between values parts separate entries of the source, which are not always exact repeats. Equal entries are not always repeated. Where two headings read alike, the source gives them in different places.
# Key:
# [1] = rat, in vivo
# Source text: An automated blood sampler (Culex ABS, Bioanalytical Systems, Inc. West Lafayette, IN) was used for rat blood sample collection.
# (§1) Three samples were collected during each phase of absorption, distribution, or elimination for full PK analysis on the first and last dosing days following intravenous bonus injection. Additionally, trough levels (pre-dose) samples were collected in between each dose to follow drug accumulation and a series PK approach (18 samples per animal) was used. Thus, each animal was dosed and plasma samples were obtained for up to three days. A total of 18 (0, 5, 15, 30, 45 min, 1, 2, 3, 6, 24.25, 48.167, 48.25, 48.5, 48.75, 49, 50, 51, and 54 h) samples were collected into cooled vials. 50 μL of blood per sample was collected pre-dosing and after dosing and 100 μL per sample was taken from 0.08 h to 56 h after dosing. During collection, blood samples were added into the vials, which contained dried heparin (50 units) on the bottom of each vial. Thus, a total blood volume of 1.75 mL was obtained from each rat during the three day treatment period (0.85 mL of blood on day 0, 0.1 mL on day 1, and 0.9 mL on day 2), which is 9.3% of the animals total blood volume. Subjects for replicated crossover design were followed FDA recommendation [22] with a 2 week wash out period. During wash-out period, if the catheter was blocked up by any reasons the jugular vein tubes were infused or replaced.
# The area under the curve (AUC) was determined by the linear trapezoidal rule with extrapolation to infinity based on the concentration of the last time point divided by the terminal rate constant.
# [2] = Pharmacokinetics of AS and DHA in rat plasma after single and multiple intravenous AS injections (automated blood sampler, LC-MS/MS);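 as to all read-outs here: blood drawn through a jugular vein catheter by an automated sampling system, plasma drug levels measured by LC-MS/MS with positive electrospray ionization against standard curves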; format: in vivo, Sprague-Dawley rats; conditions: for AUC0–3 h / Cmin / Degree of Fluctuation = 100% × (Cmax − Cmin)/Cav / Cmax / MRT / Tmax / AUC(0-t) / AUC / half-life / average plasma concentration over 0–72 h (Cav = AUC0–72 h/72): 20 mg/kg i.v. daily for 3 days, male rats; for Cmax / MRT / Tmax / AUC(0-t) / AUC / half-life / average plasma concentration over 0–72 h (Cav = AUC0–72 h/72): male, Sprague-Dawley, rat, plasma, iv, 20 mg/kg; for AUC(0-t): read-out: AUC0–3 h; for AUC: read-out: AUCinfininty
# Procedure: The Culex ABS is a blood sampling and metabolism monitoring machine, which is controlled by its own internal computer. We were successful in evaluating PK for long-term periods by using this system. After jugular vein cannulation, study animals were individually placed in the system, which allowed for a micro-pump to infuse heparinized-saline (10 unit heparin/mL saline) at a rate of 1-2 μL/min to prevent coagulation within the catheter. Culex samples were obtained with precise blood volumes from the study animals and the total volume taken was less than 6% per day and 14% during the entire study period. Blood samples were maintained at 3 °C using Culex's temperature-controlled fractional collector. Plasma was separated from the blood samples and processed for drug extraction.
# as §1
# The samples were vortexed vigorously (set at 10 or max setting) for 8–10 sec followed by a 10,000 × g centrifugation at 4 °C for 10 min. Aliquots (approximately 250 μL ea) of the undisturbed supernatants were transferred into a 96-well plate for LC-MS/MS analyses. […] Drugs were chromatographically separated using an acetonitrile/ammonium acetate gradient through a Waters XTerra C18 column (2.1 × 50 mm, 3.5 μm particle size) and corresponding pre-column. Quantification was done using the most abundant daughter ions following positive electrospray ionization. Chromatograms were analyzed using Xcalibur mass spectrometry software. The responses-concentrations standard curves were fitted and weighted.
# The area under the curve (AUC) was determined by the linear trapezoidal rule with extrapolation to infinity based on the concentration of the last time point divided by the terminal rate constant. The bioequivalence (BE) evaluation of the two formulations were analyzed by using BE software (WinNonlin 5.2, Pharsight Co. Mountain View, CA. USA) in rats for a NDA application.
# [3] = cited from earlier work
# [4] = more active; cited from earlier work
# [5] = male, Sprague-Dawley, iv, 20 mg/kg, 1 day
# [6] = Chinese formulation (AS/NaHCO3), Period 1, Day 3
# [7] = Chinese formulation (AS/NaHCO3), Period 2, Day 3
# [8] = WRAIR formulation (AS/0.3M PBS Buffer), Period 1, Day 3
# [9] = WRAIR formulation (AS/0.3M PBS Buffer), Period 2, Day 3
# [10] = Chinese formulation (AS/NaHCO3), Period 1, Day 1
# [11] = Chinese formulation (AS/NaHCO3), Period 2, Day 1
# [12] = WRAIR formulation (AS/0.3M PBS Buffer), Period 1, Day 1
# [13] = WRAIR formulation (AS/0.3M PBS Buffer), Period 2, Day 1
smiles,measurement,setting,value
"C[C@H]1[C@@H](O)O[C@@H]2O[C@@]3(C)CC[C@H]4[C@H](C)CC[C@@H]1[C@@]24OO3 [DHA, dihydroartemisinin]","90% CI for the difference between the two i.v. formulations, AUC1–3D","[1]; Sprague-Dawley, iv",79.11–120.89%
same,"90% CI of the difference between the two intravenous formulations, AUCD3","[1]; Sprague-Dawley, iv, 3 day",71.32–128.67%
same,"90% CI for T/R, Lower, AUCD1",[1]; [5],82.04%
same,"90% CI for T/R, Upper, AUCD1",[1]; [5],117.96%
same,"BE (bioequivalence), AUCD1",[1],Yes
same,"BE (bioequivalence), Cmax D1",[1],No
same,"90% CI between the two intravenous formulations, AUC0–3 h",[1]; iv,82.04–117.96%
same,AUC0–3 h,[2]; [6],990.8 ± 224.7 ng·h/mL
same,Cmin,[2]; [6],2.96 ± 2.31 ng/mL
same,Degree of Fluctuation = 100% × (Cmax − Cmin)/Cav,[2]; [6],860% and 860.1 ± 121.1%
same,AUC0–3 h,[2]; [7],905.2 ± 188.7 ng·h/mL
same,Cmin,[2]; [7],4.52 ± 2.25 ng/mL
same,Degree of Fluctuation = 100% × (Cmax − Cmin)/Cav,[2]; [7],844 ± 64%
same,time at which Cmax was measured,"[2]; Chinese formulation, 20 mg/kg i.v., rats, period 1, day 1",15 min
same,time at which Cmax was measured,"[2]; Chinese formulation, 20 mg/kg i.v., rats, period 2, day 1",15 min
same,time at which Cmax was observed,"[2]; Chinese formulation, 20 mg/kg i.v., rats, period 2, day 3",15 min
same,Cmin,[2]; [8],6.59 ± 3.06 ng/mL
same,Cmin,[2]; [9],5.38 ± 3.77 ng/mL
same,time at which Cmax was measured,"[2]; WRAIR formulation, 20 mg/kg i.v., rats, period 1, day 1",15 min
same,Cmax,[2]; [10],3360 ng/mL
same,MRT,[2]; [10],22.8 ± 7.8 min
same,Tmax,[2]; [10],15 min
same,AUC(0-t),[2]; [10],1570 ng·h/mL
same,AUC,[2]; [10],1570 ± 350 ng·h/mL
same,half-life,"[2]; Chinese formulation (AS/NaHCO3), Period 1, Day 1, read-out: t1/2 distribution (converted)",7.2 ± 1.2 min
same,half-life,"[2]; Chinese formulation (AS/NaHCO3), Period 1, Day 1, read-out: t1/2 elimination (converted)",45 ± 6 min
same,Cmax,[2]; [6],2780 ng/mL
same,MRT,[2]; [6],21 ± 3.6 min
same,Tmax,[2]; [6],10.2 ± 5.4 min
same,average plasma concentration over 0–72 h (Cav = AUC0–72 h/72),[2]; [6],330 ng·h/mL
same,AUC(0-t),[2]; [6],991 ng·h/mL
same,AUC,[2]; [6],994 ± 225 ng·h/mL
same,half-life,"[2]; Chinese formulation (AS/NaHCO3), Period 1, Day 3, read-out: t1/2 distribution (converted)",5.4 ± 0.6 min
same,half-life,"[2]; Chinese formulation (AS/NaHCO3), Period 1, Day 3, read-out: t1/2 elimination (converted)",40.8 ± 9 min
same,Cmax,[2]; [11],2690 ng/mL
same,MRT,[2]; [11],27.6 ± 8.4 min
same,Tmax,[2]; [11],15 min
same,AUC(0-t),[2]; [11],1220 ng·h/mL
same,AUC,[2]; [11],1230 ± 266 ng·h/mL
same,half-life,"[2]; Chinese formulation (AS/NaHCO3), Period 2, Day 1, read-out: t1/2 distribution (converted)",7.2 ± 1.2 min
same,half-life,"[2]; Chinese formulation (AS/NaHCO3), Period 2, Day 1, read-out: t1/2 elimination (converted)",43.8 ± 10.2 min
same,Cmax,[2]; [7],2450 ng/mL
same,MRT,[2]; [7],22.8 ± 1.2 min
same,Tmax,[2]; [7],15 min
same,AUC(0-t),[2]; [7],905 ng·h/mL
same,AUC,[2]; [7],910 ± 188 ng·h/mL
same,half-life,"[2]; Chinese formulation (AS/NaHCO3), Period 2, Day 3, read-out: t1/2 distribution (converted)",4.8 ± 0.6 min
same,half-life,"[2]; Chinese formulation (AS/NaHCO3), Period 2, Day 3, read-out: t1/2 elimination (converted)",43.2 ± 7.2 min
same,Cmax,[2]; [12],3150 ng/mL
same,MRT,[2]; [12],23.4 ± 4.8 min
same,Tmax,[2]; [12],15 min
same,AUC(0-t),[2]; [12],1460 ng·h/mL
same,AUC,[2]; [12],1460 ± 211 ng·h/mL
same,half-life,"[2]; WRAIR formulation (AS/0.3M PBS Buffer), Period 1, Day 1, read-out: t1/2 distribution (converted)",7.2 ± 0.6 min
same,half-life,"[2]; WRAIR formulation (AS/0.3M PBS Buffer), Period 1, Day 1, read-out: t1/2 elimination (converted)",58.8 ± 8.4 min
same,Cmax,[2]; [8],2810 ng/mL
same,MRT,[2]; [8],20.4 ± 6.6 min
same,Tmax,[2]; [8],15 min
same,average plasma concentration over 0–72 h (Cav = AUC0–72 h/72),[2]; [8],367 ng·h/mL
same,AUC(0-t),[2]; [8],1100 ng·h/mL
same,AUC,[2]; [8],1110 ± 174 ng·h/mL
same,half-life,"[2]; WRAIR formulation (AS/0.3M PBS Buffer), Period 1, Day 3, read-out: t1/2 distribution (converted)",5.4 ± 0.6 min
same,half-life,"[2]; WRAIR formulation (AS/0.3M PBS Buffer), Period 1, Day 3, read-out: t1/2 elimination (converted)",54 ± 7.2 min
same,Cmax,[2]; [13],3520 ng/mL
same,MRT,[2]; [13],24 ± 2.4 min
same,Tmax,[2]; [13],15 min
same,AUC(0-t),[2]; [13],1510 ng·h/mL
same,AUC,[2]; [13],1510 ± 293 ng·h/mL
same,half-life,"[2]; WRAIR formulation (AS/0.3M PBS Buffer), Period 2, Day 1, read-out: t1/2 distribution (converted)",8.4 ± 0.6 min
same,half-life,"[2]; WRAIR formulation (AS/0.3M PBS Buffer), Period 2, Day 1, read-out: t1/2 elimination (converted)",54.6 ± 4.2 min
same,Cmax,[2]; [9],3120 ng/mL
same,MRT,[2]; [9],23.4 ± 1.8 min
same,Tmax,[2]; [9],15 min
same,AUC(0-t),[2]; [9],1040 ng·h/mL
same,AUC,[2]; [9],1050 ± 160 ng·h/mL
same,half-life,"[2]; WRAIR formulation (AS/0.3M PBS Buffer), Period 2, Day 3, read-out: t1/2 distribution (converted)",5.4 ± 8.4 min
same,half-life,"[2]; WRAIR formulation (AS/0.3M PBS Buffer), Period 2, Day 3, read-out: t1/2 elimination (converted)",52.8 ± 8.4 min
same,elimination half-life (t1/2),[3],40 to 60 min
same,activity compared with other artemisinin derivatives,[4],3-5 fold
